Columns and labels:
Assay type in all cases: in vivo
Spodoptera littoralis = Spodoptera littoralis (Egyptian Cotton Leafworm) cotton leaf disc spray test; settings: foliar, 72 h, 200 ppm spray on cotton leaf discs, L1 larvae, mortality, feeding behavior, growth regulation 3 DAT
Thrips tabaci = Thrips tabaci (Onion Thrips) sunflower leaf disc spray test; settings: foliar, 168 h, 200 ppm spray on sunflower leaf discs, population of mixed ages, 7 days, mortality
Heliothis virescens = Heliothis virescens (Tobacco Budworm) egg test on artificial diet; settings: 96 h, 200 ppm (concentration in well 18 ppm), eggs 0-24 h old on artificial diet, 4 days, egg mortality, larval mortality, growth regulation
Diabrotica balteata = Diabrotica balteata (Corn Root Worm) artificial diet MTP test; settings: 120 h, 200 ppm (concentration in well 18 ppm), L2 larvae, 5 days, larval mortality, growth regulation
Plutella xylostella = Plutella xylostella (Diamond Back Moth) artificial diet MTP test; settings: 144 h, 200 ppm (concentration in well 18 ppm), L2 larvae, 6 days, larval mortality, growth regulation

Measured: pest or weed control at 200 ppm

COc1c(NC(=O)c2ccc(Br)o2)cccc1C(=O)Nc1c(Cl)cc(C(F)(C(F)(F)F)C(F)(F)C(F)(F)F)cc1Br (centres unmarked) [B52]
≥ 80%: all assays above

COc1c(NC(=O)c2ccc([N+](=O)[O-])c(C)c2I)cccc1C(=O)Nc1c(Cl)cc(C(F)(C(F)(F)F)C(F)(F)C(F)(F)F)cc1Br (centres unmarked) [B161]
not listed: Spodoptera littoralis
≥ 80%: all other assays above

COc1c(NC(=O)c2ccccc2C(F)(F)F)cccc1C(=O)Nc1c(Cl)cc(C(F)(C(F)(F)F)C(F)(F)F)cc1Cl [E18]
≥ 80%: all assays above

COc1c(NC(=O)c2cc(C(C)(C)C)nn2C)cccc1C(=O)Nc1c(Cl)cc(C(F)(C(F)(F)F)C(F)(F)C(F)(F)F)cc1Br (centres unmarked) [B112]
≥ 80%: all assays above

CCc1cc(C(F)(C(F)(F)F)C(F)(F)C(F)(F)F)cc(C)c1NC(=O)c1cccc(NC(=O)c2cccc(Cl)c2)c1OC (centres unmarked) [A8]
≥ 80%: all assays above

COc1c(NC(=O)c2ccnc(C(F)(F)F)c2Cl)cccc1C(=O)Nc1c(Cl)cc(C(F)(C(F)(F)F)C(F)(F)C(F)(F)F)cc1Br (centres unmarked) [B115]
≥ 80%: all assays above

COc1c(NC(=O)c2cccc(C)c2[N+](=O)[O-])cccc1C(=O)Nc1c(Cl)cc(C(F)(C(F)(F)F)C(F)(F)C(F)(F)F)cc1Br (centres unmarked) [B87]
≥ 80%: all assays above

COc1c(NC(=O)c2ccccc2Cl)cccc1C(=O)Nc1c(C)cc(C(F)(C(F)(F)F)C(F)(F)C(F)(F)F)cc1C (centres unmarked) [F3]
≥ 80%: all assays above

COc1c(NC(=O)c2c(-c3ccccc3)noc2C)cccc1C(=O)Nc1c(Cl)cc(C(F)(C(F)(F)F)C(F)(F)C(F)(F)F)cc1Br (centres unmarked) [B46]
≥ 80%: Thrips tabaci

COc1c(NC(=O)c2cc(C(F)(F)F)n(C)n2)cccc1C(=O)Nc1c(Cl)cc(C(F)(C(F)(F)F)C(F)(F)C(F)(F)F)cc1Br (centres unmarked) [B92]
≥ 80%: Spodoptera littoralis | Thrips tabaci | Diabrotica balteata

COc1c(NC(=O)c2ccc(-c3ccccc3)o2)cccc1C(=O)Nc1c(Cl)cc(C(F)(C(F)(F)F)C(F)(F)C(F)(F)F)cc1Br (centres unmarked) [B49]
≥ 80%: Thrips tabaci

COc1cc(C(=O)Nc2cccc(C(=O)Nc3c(Cl)cc(C(F)(C(F)(F)F)C(F)(F)C(F)(F)F)cc3Br)c2OC)cc(Cl)n1 (centres unmarked) [B146]
≥ 80%: all assays above

COc1c(NC(=O)c2cc(C)oc2C)cccc1C(=O)Nc1c(Cl)cc(C(F)(C(F)(F)F)C(F)(F)C(F)(F)F)cc1Br (centres unmarked) [B58]
≥ 80%: all assays above

COc1c(NC(=O)c2cc(Cl)ccc2Cl)cccc1C(=O)Nc1c(Cl)cc(C(F)(C(F)(F)F)C(F)(F)C(F)(F)F)cc1Br (centres unmarked) [B27]
≥ 80%: all assays above

COc1c(NC(=O)c2cccc(F)c2)cccc1C(=O)Nc1c(C)cc(C(F)(C(F)(F)F)C(F)(F)C(F)(F)F)cc1C (centres unmarked) [F20]
≥ 80%: all assays above

COc1c(NC(=O)c2ccccc2F)cccc1C(=O)Nc1c(Cl)cc(C(F)(C(F)(F)F)C(F)(F)C(F)(F)F)cc1Cl (centres unmarked) [C3]
≥ 80%: all assays above

COc1c(NC(=O)c2ccc(C(F)(F)F)cc2F)cccc1C(=O)Nc1c(Cl)cc(C(F)(C(F)(F)F)C(F)(F)C(F)(F)F)cc1Br (centres unmarked) [B167]
not listed: Plutella xylostella
≥ 80%: all other assays above

COc1c(NC(=O)c2ccccc2Cl)cccc1C(=O)Nc1c(Cl)cc(C(F)(C(F)(F)F)C(F)(F)F)cc1Cl [E3]
not listed: Plutella xylostella
≥ 80%: all other assays above

COc1c(NC(=O)c2cccc(F)c2F)cccc1C(=O)Nc1c(C)cc(C(F)(C(F)(F)F)C(F)(F)C(F)(F)F)cc1C (centres unmarked) [F8]
≥ 80%: all assays above

COc1c(NC(=O)c2ccc([N+](=O)[O-])c(C)c2Br)cccc1C(=O)Nc1c(Cl)cc(C(F)(C(F)(F)F)C(F)(F)C(F)(F)F)cc1Br (centres unmarked) [B162]
not listed: Spodoptera littoralis
≥ 80%: all other assays above

COc1c(NC(=O)c2ccc(F)cc2F)cccc1C(=O)Nc1c(Cl)cc(C(F)(C(F)(F)F)C(F)(F)F)cc1Cl [E22]
≥ 80%: all assays above

COc1c(NC(=O)c2ccccc2C(F)(F)F)cccc1C(=O)Nc1c(Cl)cc(C(F)(C(F)(F)F)C(F)(F)C(F)(F)F)cc1Br (centres unmarked) [B20]
≥ 80%: all assays above

CCc1cc(C(F)(C(F)(F)F)C(F)(F)C(F)(F)F)cc(C)c1NC(=O)c1cccc(NC(=O)c2ccccc2)c1OC (centres unmarked) [A19]
≥ 80%: all assays above

COc1c(NC(=O)c2ccc(C(C)C)cc2)cccc1C(=O)Nc1c(Cl)cc(C(F)(C(F)(F)F)C(F)(F)C(F)(F)F)cc1Br (centres unmarked) [B25]
≥ 80%: all assays above

COc1c(NC(=O)c2ccc([N+](=O)[O-])c(N(C)C)c2)cccc1C(=O)Nc1c(Cl)cc(C(F)(C(F)(F)F)C(F)(F)C(F)(F)F)cc1Br (centres unmarked) [B175]
not listed: Diabrotica balteata
≥ 80%: all other assays above

COc1c(NC(=O)c2ccc(SC)cc2[N+](=O)[O-])cccc1C(=O)Nc1c(Cl)cc(C(F)(C(F)(F)F)C(F)(F)C(F)(F)F)cc1Br (centres unmarked) [B116]
not listed: Thrips tabaci
≥ 80%: all other assays above

COc1c(NC(=O)c2cc(C)n(C)n2)cccc1C(=O)Nc1c(Cl)cc(C(F)(C(F)(F)F)C(F)(F)C(F)(F)F)cc1Br (centres unmarked) [B100]
not listed: Thrips tabaci
≥ 80%: all other assays above

CCc1cc(C(F)(C(F)(F)F)C(F)(F)C(F)(F)F)cc(C)c1NC(=O)c1cccc(NC(=O)c2ccc(F)cc2)c1OC (centres unmarked) [A1, N-[2-ethyl-4-(1,2,2,3,3,3-hexafluoro-1-trifluoromethylpropyl)-6-methylphenyl]-3-(4-fluorobenzoylamino)-2-methoxybenzamide]
not listed: Thrips tabaci
≥ 80%: all other assays above

CCc1cc(C(F)(C(F)(F)F)C(F)(F)C(F)(F)F)cc(C)c1NC(=O)c1cccc(NC(=O)c2cccc(F)c2F)c1OC (centres unmarked) [A20]
≥ 80%: all assays above

COc1c(NC(=O)c2cc([N+](=O)[O-])cc([N+](=O)[O-])c2C)cccc1C(=O)Nc1c(Cl)cc(C(F)(C(F)(F)F)C(F)(F)C(F)(F)F)cc1Br (centres unmarked) [B86]
not listed: Thrips tabaci
≥ 80%: all other assays above

CCc1cc(C(F)(C(F)(F)F)C(F)(F)C(F)(F)F)cc(C)c1NC(=O)c1cccc(NC(=O)c2ccccc2Cl)c1OC (centres unmarked) [A9]
≥ 80%: all assays above

COc1c(NC(=O)c2ccc([N+](=O)[O-])c(C)c2Cl)cccc1C(=O)Nc1c(Cl)cc(C(F)(C(F)(F)F)C(F)(F)C(F)(F)F)cc1Br (centres unmarked) [B163]
not listed: Spodoptera littoralis
≥ 80%: all other assays above
